Assay results from patent US20210268030A1, “FIBROADIPOGENIC PROGENITOR-DERIVED EXOSOMES FOR REGENERATION OF DYSTROPHIC MUSCLES” (EXOFIX S.R.L., priority 2018, published 2021).

Columns and labels:
MuSCs [1] = experiment: PKH-67 tracing of exosome transfer from FAPs to MuSCs in transwell co-culture; format: cell-based, mdx mice; conditions: PKH67-labelled FAPs exposed to GW4869
Description: To stain FAPs derived exosomes, FAP cells were incubated with the lipidic dye PKH-67 (#P7333, Sigma) according to manufacturer instructions prior to transwell co-culture with MuSCs.
To analyse the capacity of MuSCs to uptake FAP-derived exosomes, we performed a transwell co-culture in which the potential “source” of exosomes—FAPs—was […] prior to transwell co-culture with the “acceptor” cells—MuSCs. […] PKH-67 is incorporated into newly generated exosomes, and therefore traces their passage to acceptor cells.

MuSCs [2] = experiment: Transwell co-culture of FAPs with MuSCs, myogenic differentiation (fusion index); format: cell-based, mdx mice; conditions: FAPs exposed to GW4869 (10 uM) before transwell co-culture
Description: MuSCs and FAP cells were co-cultured by using inserts with 1.0 μm porous membrane to avoid direct contact between populations.
Cell culture inserts with 1.0-·m pore (#353102, #353104, Falcon) and 6 or 24 -well culture plates (BD Bioscience) were used for transwell co-culture. Freshly sorted MuSCs were plated in the bottom of the plate, while FAP cells were plated on the upper insert.
To decrease FAP-exosomes release, GW4869 (10 uM, #D1692, Sigma) was added to FAPs culture 30′ before the co-culture setting with MuSCs. To wash away any residual trace of GW4869, FAPs media was refreshed right before co-culture.
For Drosha SiRNA treatments, in vivo TSA treated FAPs on transwell were transfected with commercially available Drosha siRNA using Dharmafect3.0 (Dharmacon) according to manufacturer instructions; after 6 hours FAPs were put in co-culture with MuSCs.
We began to determine the identity of the extracellular mediators of FAP's support to MuSCs in DMD muscles, by performing transwell co-cultures between FAPs isolated from 1.5 month old mdx mice and MuSCs isolated from age-matched mdx mice. In transwell cultures, cells are separated by a membrane of 1 μm pore size that prevents direct cell contact, yet allows reciprocal transfer of soluble mediators of functional interactions between co-cultured cells.

[3] = system: MuSCs within single fibres; experiment: Single muscle fibres incubated with FAP conditioned media or exosomes (Pax7, MyoD, EdU); format: cell-based, C57BL6J-WT mice
Description: Single fibers were isolated using Pasut (2013) and Moyle's protocol (2014) from tibialis anterior, extensor digitorum longus, gastrocnemius and soleus muscles of C57BL6J-WT mice and cultured in proliferating medium (GM1: DMEM+pyruvate+4.5 g/l glucose+glutamate, 10% horse serum (HS), 0.5% Chicken Embryo Extract) for 24 hours, then exposed for the next 24 hrs to GM1 conditioned media derived from culture of FAPs (MEDIA-FAPs) isolated from young mdx mouse treated for 15 days with vehicle (CTR) or mdx mice treated with TSA (TSA) or media isolated from FAPs CTR and TSA pre-treated with the GW4869 to inhibit exosome biogenesis. In a parallel, independent experiment, single fibers were exposed to exosomes (EXO-FAPs) purified from MEDIA-FAPs and added to GM1 for 24 hours.
In ex-vivo experiments FAP-derived Exosomes (10·g) isolated by TEIR were put in culture with MuSCs or with myofibers in the cell culture media.
To investigate this hypothesis, we evaluated the effect of FAP-derived exosomes from HDACi-treated or control-treated mdx mice on MuSCs within single fibres isolated from WT mice. Freshly isolated single muscle fibres from tibialis anterior, extensor digitorum longus, gastrocnemius and soleus of C57BL6J mice were incubated with FAP-derived exosomes or whole conditioned media, and their effect on MuSCs was evaluated by monitoring the expression of Pax7, MyoD and DNA synthesis (EdU incorporation). In this experimental setting, the uptake of FAP-derived exosomes by MuSCs from single fibers was first confirmed by staining of lipidic dye PKH-67 used on purified vesicles (FIG. 6B).

muscles of DMD patients = conditions: phase I/II clinical trial, after one year of treatment; cited from earlier work
[4] = system: animals affected by muscular dystrophy; conditions: in vivo; cited from earlier work
preclinical model of DMD = conditions: Colussi et al. 2010; cited from earlier work
[5] = supernatant of FAPs from control-treated mdx mice pre-exposed to GW4869

O=C(/C=C/c1ccc(/C=C/C(=O)Nc2ccc(C3=NCCN3)cc2)cc1)Nc1ccc(C2=NCCN2)cc1 [GW4869]
prevention of detection of the PKH-67 signal in MuSCs co-cultured with FAPs (MuSCs [1]): more than 80% | FAP's ability to enhance MuSCs differentiation into multinucleated myotubes (MuSCs [2]): abrogated | ability of the whole supernatant to increase all MuSC populations as well as their proliferation ([3]; GW4869 treatment of FAPs from TSA-treated mdx mice): drastically reduced | number of Pax7+/MyoD+ MuSCs with high DNA synthesis (Edu+) [3, 5]: not altered | number of quiescent (Pax7+MyoD−) and differentiation-committed (Pax7- MyoD+) MuSCs [3, 5]: drastic reduction

CCN(CC)Cc1ccc2cc(COC(=O)Nc3ccc(C(=O)NO)cc3)ccc2c1 [Givinostat]
histology of the muscles of DMD patients (muscles of DMD patients): positively affect | activity in the treatment of animals affected by muscular dystrophy [4]: active

Nc1ccccc1NC(=O)c1ccc(CNC(=O)OCc2cccnc2)cc1 [MS-275]
activity in the treatment of animals affected by muscular dystrophy [4]: active

O=C(CCCCCCC(=O)Nc1ccccc1)NO [Vorinostat]
activity in the treatment of animals affected by muscular dystrophy [4]: active | dose response curve (preclinical model of DMD): bell-shaped
